Experimental data: patent US20050038048A1, “Use of 7h-pyrrollo{2,3-d}pyrimidine derivatives in the treatment of solid tumor diseases” (priority 2001, published 2005)

system: not given; test: not given; settings: not given

Row | SMILES | melting point [°C]
1 | C[C@@H](Nc1ncnc2[nH]c(-c3ccc(CN(C)C)cc3)cc12)c1ccccc1 [Example 5, [6-(4-Dimethylaminomethyl-phenyl)-7H-pyrrolo[2,3-d]pyrimidin-4-yl]-((R)-1-phenyl-ethyl)-amine] | 241 to 243
2 | CCN(CC)Cc1ccc(-c2cc3c(N[C@H](C)c4ccccc4)ncnc3[nH]2)cc1 [Example 2, [6-(4-Diethylaminomethyl-phenyl)-7H-pyrrolo[2,3-d]pyrimidin-4-yl]-((R)-1-phenyl-ethyl)-amine] | 246 to 248
3 | C[C@@H](Nc1ncnc2[nH]c(-c3ccc(CN4CCN(C)CC4)cc3)cc12)c1ccccc1 [Example 1, {6-[4-(4-Methyl-piperazin-1-ylmethyl)-phenyl]-7H-pyrrolo[2,3-d]pyrimidin-4-yl}-((R)-1-phenyl-ethyl)-amine] | 248 to 250
4 | C[C@@H](Nc1ncnc2[nH]c(-c3ccc(CN4CCCC4)cc3)cc12)c1ccccc1 [Example 4, ((R)-1-Phenyl-ethyl)-[6-(4-pyrrolidin-1-ylmethyl-phenyl)-7H-pyrrolo[2,3-d]pyrimidin-4-yl]-amine] | 254 to 256

The next lines start with the values.

Row | melting point [°C] | SMILES
5 | 222 to 224 | C[C@@H](Nc1ncnc2[nH]c(-c3ccc(CNCCN4CCOCC4)cc3)cc12)c1ccccc1 [Example 9, (6-{4-[(2-Morpholin-4-yl-ethylamino)-methyl]-phenyl}-7H-pyrrolo[2,3-d]pyrimidin-4-yl)-((R)-1-phenyl-ethyl)-amine]
6 | 246 to 248 | C[C@@H](Nc1ncnc2[nH]c(-c3ccc(CN4CCCCC4)cc3)cc12)c1ccccc1 [Example 6, ((R)-1-Phenyl-ethyl)-[6-(4-piperidin-1-ylmethyl-phenyl)-7H-pyrrolo[2,3-d]pyrimidin-4-yl]-amine]
7 | 253 to 255 | C[C@@H](Nc1ncnc2[nH]c(-c3ccc(CNC4CCOCC4)cc3)cc12)c1ccccc1 [Example 10, ((R)-1-Phenyl-ethyl)-(6-{4-[(tetrahydro-pyran-4-ylamino)-methyl]-phenyl}-7H-pyrrolo[2,3-d]pyrimidin-4-yl)-amine]
8 | 263 to 265 | C[C@@H](Nc1ncnc2[nH]c(-c3ccc(CN4CCOCC4)cc3)cc12)c1ccccc1 [Example 7, [6-(4-Morpholin-4-ylmethyl-phenyl)-7H-pyrrolo[2,3-d]pyrimidin-4-yl]-((R)-1-phenyl-ethyl)-amine]
9 | 208 to 210 | CC1CN(Cc2ccc(-c3cc4c(N[C@H](C)c5ccccc5)ncnc4[nH]3)cc2)CC(C)N1 (stereo partly drawn) [Example 8, {6-[4-(3,5-Dimethyl-piperazin-1-ylmethyl)-phenyl]-7H-pyrrolo[2,3-d]pyrimidin-4-yl}-((R)-1-phenyl-ethyl)-amine]

system: NSCLC; test: Treatment of a human patient suffering from NSCLC with PKI166; type: in vivo; settings: 8 weeks, 450 mg/day except on day 2, 16 and 30, partial response = greater than or equal to 50% reduction in measurable or evaluable disease without progression
Procedure: A human patient suffering from NSCLC is treated for a period of 8 weeks with 450 mg/day of PKI166 except on day 2, 16 and 30 on which days no drug is applied.

Row | SMILES | disease response observed after treatment
10 | C[C@@H](Nc1ncnc2[nH]c(-c3ccc(O)cc3)cc12)c1ccccc1 [PKI166, (R)-6-(4-hydroxy-phenyl)-4-[(1-phenyl-ethyl)-amino]-7H-pyrrolo[2,3-d]pyrimidine] | partial response

system: renal cell cancer; test: Treatment of a human patient suffering from renal cell cancer with PKI166; type: in vivo; settings: 16 weeks in 4 cycles of 600 mg daily for two weeks followed by 2 weeks without drug, stable disease = less than 50% decrease or less than 25% increase in measurable or evaluable disease
Procedure: A human patient suffering from renal cell cancer is treated for a period of 16 weeks in 4 cycles consisting of administration of 600 mg of PKI166 daily for two weeks followed by 2 weeks without administering the drug. […] A human patient suffering from renal cell cancer is treated for a period of 16 weeks with 400 mg of PKI166 on Monday, Wednesday and Friday of each week.

Row | SMILES | disease response observed during treatment
11 | C[C@@H](Nc1ncnc2[nH]c(-c3ccc(O)cc3)cc12)c1ccccc1 [PKI166, (R)-6-(4-hydroxy-phenyl)-4-[(1-phenyl-ethyl)-amino]-7H-pyrrolo[2,3-d]pyrimidine] | stable disease

same assay, conditions: 16 weeks, 400 mg on Monday, Wednesday and Friday of each week, stable disease = less than 50% decrease or less than 25% increase in measurable or evaluable disease

Row | SMILES | disease response observed during treatment
12 | C[C@@H](Nc1ncnc2[nH]c(-c3ccc(O)cc3)cc12)c1ccccc1 [PKI166, (R)-6-(4-hydroxy-phenyl)-4-[(1-phenyl-ethyl)-amino]-7H-pyrrolo[2,3-d]pyrimidine] | stable disease
